# Results reported in patent US20110028471A1, “COMBINATION THERAPY 238” (ASTRAZENECA AB, priority 2008, published 2011).
# Like-named read-outs stand apart in the source and are kept apart here.
# Experiments:
# cleaved caspase 3 [1] = assay: cleaved caspase 3 immunohistochemistry, A549 xenografts; format: in vivo, mice; settings: A549 xenograft, 2 hours after 4 days of treatment; control 0.94%; Compound A 20 mg/kg, AZD2171 3 mg/kg
# Description: Compound A was dosed two hours before AZD2171 (or vehicle). […] The levels of cleaved caspase 3 (percentage of positive nuclei) were determined in tumour xenografts by immunohistochemistry 2 hours after 4 days of treatment.
# Calu-6 tumour xenograft = Calu-6 tumour xenograft in vivo solid tumour model; settings: once-daily oral, 28 days
# [2] = body weight loss in A549 study; format: in vivo, mice; settings: Compound A 20 mg/kg, AZD2171 3 mg/kg, range in brackets
# Description: When mean tumour volume reached approximately 0.27 cm^3, the mice were randomized into control and treatment groups. […] The control group received both vehicles alone (same sequence as above), once daily by oral gavage. Tumor volumes (measured by calliper), animal body weight and tumor condition were recorded twice weekly for the duration of the study. Mice were humanely sacrificed by CO2 euthanasia. Tumour volumes were assessed using bilateral Vernier calliper measurement at least twice weekly and calculated using the formula (length×width)×√(length×width)×(π/6), where length was taken to be the longest diameter across the tumour and width the corresponding perpendicular. Growth inhibition from the start of treatment was assessed by comparison of the differences in tumor volume between control and treated groups. Because the variance in mean tumor volume data increases proportionally with volume (and is therefore disproportionate between groups), data were log-transformed to remove any size dependency before statistical evaluation. Statistical significance was evaluated using a one-tailed, two-sample t test. […] A two-way ANOVA test was performed using the factors concentration of drug A and concentration of drug B. The data analyzed was Log(final tumor volume)−Log(initial tumor volume) calculated for each individual animal at the end of the study. […]
# A549 tumour xenografts = assay: A549 xenograft tumour growth, combination study; format: in vivo, mice; settings: Compound A 20 mg/kg, AZD2171 3 mg/kg; for tumour growth inhibition: A549, female athymic mice, oral gavage once daily, 21 days, combination same doses, compared to control; for tumours smaller than at start of treatment: A549, individual tumour volumes at the end of the dosing period
# Description: Human tumour xenografts were established in female athymic mice by injecting 5×10^6/0.1 ml A549a cells subcutaneously in the left hand side flank.
# When mean tumour volume reached approximately 0.27 cm^3, the mice were randomized into control and treatment groups. […] The control group received both vehicles alone (same sequence as above), once daily by oral gavage. Tumor volumes (measured by calliper), animal body weight and tumor condition were recorded twice weekly for the duration of the study. Mice were humanely sacrificed by CO2 euthanasia. Tumour volumes were assessed using bilateral Vernier calliper measurement at least twice weekly and calculated using the formula (length×width)×√(length×width)×(π/6), where length was taken to be the longest diameter across the tumour and width the corresponding perpendicular. Growth inhibition from the start of treatment was assessed by comparison of the differences in tumor volume between control and treated groups. Because the variance in mean tumor volume data increases proportionally with volume (and is therefore disproportionate between groups), data were log-transformed to remove any size dependency before statistical evaluation. Statistical significance was evaluated using a one-tailed, two-sample t test. To analyze the data from the combination study, the statistical tool SigmaStat has been used. A two-way ANOVA test was performed using the factors concentration of drug A and concentration of drug B. The data analyzed was Log(final tumor volume)−Log(initial tumor volume) calculated for each individual animal at the end of the study. This tool is used to assess whether there is a main effect of drug A, a main effect of drug B plus a significant mechanistic interaction between the two compounds A and B (eg, one compound influences the effect of the other compound) which may be interpreted as antagonism, additivity or synergism. The statistical analysis was performed at the end of the dosing period (21 days).
# pAKT [3] = assay: pharmacodynamic study, pAKT in A549 xenograft tissue; format: in vivo, mice; settings: 4 days of treatment, 2 hrs after last dosing, Compound A 20 mg/kg, AZD2171 3 mg/kg
# Description: (§1) Compound A was dosed two hours before AZD2171 (or vehicle).
# In the combination group, levels of pAKT were similar to those with Compound A to 58% (p<0.005) compared to control (FIG. 3).
# [4] = biological target: stem cell factor receptor tyrosine kinase (SCF RTK, commonly known as c-Kit) (Homo sapiens, UniProt P10721); assay: inhibition of c-Kit
# pS6 [5] = assay: pharmacodynamic study, pS6 in A549 xenograft tissue; format: in vivo, mice; settings: 4 days of treatment, 2 hrs after last dosing, Compound A 20 mg/kg, AZD2171 3 mg/kg
# Description: as §1
# NCI-H526 xenografts = assay: NCI-H526 xenograft tumour growth, combination study; format: in vivo; settings: NCI-H526, nude mice, oral gavage; Compound A 20 mg/kg, AZD2171 3 mg/kg, combination same doses; compared with vehicle control
# Description: Cells were grown in NCI-H526 (RPMI 10% FCS 1% Glutamine 10% Ml), and 1×10^7 cells were implanted into the flank of nude mice (NCI-H526 plus 50% matrigel).
# When mean tumor size reached approx 0.2 cm^3, the mice were randomized into control and treatment groups. […] When administered in combination, COMPOUND A was given 2 hours […] the oral dose of the other compound. The control group received the (10% DMSO 90% propylene glycol) vehicle alone, once daily by oral gavage. Tumor volumes (measured by calliper), animal body weight and tumor condition were recorded twice weekly for the duration of the study. Mice were sacrificed by CO2 euthanasia. The tumor volume was calculated (taking length to be the longest diameter across the tumor and width to be the corresponding perpendicular diameter using the formula: (length×width)×√(length×width)×(π/6). Growth inhibition from the start of treatment was assessed by comparison of the differences in tumor volume between control and treated groups. Because the variance in mean tumor volume data increases proportionally with volume (and is therefore disproportionate between groups), data were log-transformed to remove any size dependency before statistical evaluation. Statistical significance was evaluated using a one-tailed, two-sample t test. To analyze the data from the combination study, the statistical tool SigmaStat has been used. […]
# [6] = tested on: Microvessel density (CD31 staining); assay: microvessel density by CD31 immunohistochemistry, A549 xenografts; format: in vivo, mice; settings: A549 xenograft, 2 hours after 4 days of treatment; vehicle 26.6%; Compound A 20 mg/kg, AZD2171 3 mg/kg
# Description: Microvessel density (MVD) was evaluated using CD31 staining by immunohistochemistry 2 hours after 4 days of treatment.
# HUVEC = HUVEC assay, endothelial cell proliferation; format: cell-based; settings: Homo sapiens
# pAKT [7] = assay: pharmacodynamic study, pAKT in U87MG xenograft tissue; format: in vivo, mice; settings: 4 days of treatment, 2 hrs after last dosing, Compound A 10 mg/kg, ZD6474 50 mg/kg
# [8] = body weight loss in U87MG study; format: in vivo, mice; settings: Compound A 10 mg/kg, ZD6474 50 mg/kg, range in brackets
# Description: (§2) Human tumour xenografts were established in female athymic mice by injecting 2.3×10^6/0.1 ml U87MG cells subcutaneously in the left hand side flank. When mean tumour volume reached approximately 0.18 cm^3, the mice were randomized into control and treatment groups. The treatment groups received 50 mg/kg ZD6474 (vehicle 1% polysorbate 80 milled overnight) or 10 mg/kg COMPOUND A (30% captisol pH5) or a combination 50 mg/kg ZD6474 and 10 mg/kg COMPOUND A by oral gavage. When administered in combination, COMPOUND A was given 2 hours before the oral dose of ZD6474. The control group received both vehicles (same sequence as above), once daily by oral gavage. Tumor volumes (measured by calliper), animal body weight and tumor condition were recorded twice weekly for the duration of the study. Mice were humanely sacrificed by CO2 euthanasia. Tumour volumes were assessed using bilateral Vernier calliper measurement at least twice weekly and calculated using the formula (length×width)×√(length×width)×(π/6), where length was taken to be the longest diameter across the tumour and width the corresponding perpendicular. Growth inhibition from the start of treatment was assessed by comparison of the differences in tumor volume between control and treated groups. […] Statistical significance was evaluated using a one-tailed, two-sample t test. […]
# [9] = tested on: Microvessel density (CD31 staining); assay: microvessel density by CD31 immunohistochemistry, U87MG xenografts; format: in vivo, mice; settings: U87MG xenograft, 2 hours after 4 days of treatment; vehicle 59%; Compound A 10 mg/kg, ZD6474 50 mg/kg
# Description: Microvessel density (MVD) was evaluated using CD31 staining by immuno-histochemistry 2 hours after 4 days of treatment. MVD values were 59% in vehicle-treated animals, reduced to 22% (p<0.05) after ZD6474, 50% (p=0.23) after Compound A, and 28% (p<0.05) after the combination (FIG. 8). There was no statistical interaction between compound A and ZD6474 in the combination-treated tumours (p=0.27).
# pS6 [10] = assay: pharmacodynamic study, pS6 in U87MG xenograft tissue; settings: 4 days of treatment, 2 hrs after last dosing, Compound A 10 mg/kg, ZD6474 50 mg/kg
# Description: A pharmacodynamic study evaluated biomarkers after 4 days of treatment. Animals were dosed with vehicle, ZD6474 (50 mg/kg), Compound A (10 mg/kg) or the combination daily. Compound A was dosed two hours before ZD6474 (or vehicle). Animals were culled and tumour xenograft tissue collected 2 hrs after the last dosing. […] In addition a two-way ANOVA test was performed to analyse the interaction between compounds in the combination group.
# U87MG xenografts = assay: U87MG xenograft tumour growth, combination study; format: in vivo; settings: female athymic mice, oral gavage once daily, 7 days, Compound A 10 mg/kg/qd, ZD6474 50 mg/kg/qd, combination same doses, compared to control
# Description: as §2
# cleaved caspase 3 [11] = assay: cleaved caspase 3 immunohistochemistry, U87MG xenografts; format: in vivo, mice; settings: U87MG xenograft, 2 hours after 4 days of treatment; control 0.46%; Compound A 10 mg/kg, ZD6474 50 mg/kg
# Description: The levels of cleaved caspase 3 (percentage of positive nuclei) were determined in tumour xenografts by immunohistochemistry 2 hours after 4 days of treatment.
# stem cell factor receptor tyrosine kinase (SCF RTK, commonly known as c-Kit), sequence (P10721 26-976): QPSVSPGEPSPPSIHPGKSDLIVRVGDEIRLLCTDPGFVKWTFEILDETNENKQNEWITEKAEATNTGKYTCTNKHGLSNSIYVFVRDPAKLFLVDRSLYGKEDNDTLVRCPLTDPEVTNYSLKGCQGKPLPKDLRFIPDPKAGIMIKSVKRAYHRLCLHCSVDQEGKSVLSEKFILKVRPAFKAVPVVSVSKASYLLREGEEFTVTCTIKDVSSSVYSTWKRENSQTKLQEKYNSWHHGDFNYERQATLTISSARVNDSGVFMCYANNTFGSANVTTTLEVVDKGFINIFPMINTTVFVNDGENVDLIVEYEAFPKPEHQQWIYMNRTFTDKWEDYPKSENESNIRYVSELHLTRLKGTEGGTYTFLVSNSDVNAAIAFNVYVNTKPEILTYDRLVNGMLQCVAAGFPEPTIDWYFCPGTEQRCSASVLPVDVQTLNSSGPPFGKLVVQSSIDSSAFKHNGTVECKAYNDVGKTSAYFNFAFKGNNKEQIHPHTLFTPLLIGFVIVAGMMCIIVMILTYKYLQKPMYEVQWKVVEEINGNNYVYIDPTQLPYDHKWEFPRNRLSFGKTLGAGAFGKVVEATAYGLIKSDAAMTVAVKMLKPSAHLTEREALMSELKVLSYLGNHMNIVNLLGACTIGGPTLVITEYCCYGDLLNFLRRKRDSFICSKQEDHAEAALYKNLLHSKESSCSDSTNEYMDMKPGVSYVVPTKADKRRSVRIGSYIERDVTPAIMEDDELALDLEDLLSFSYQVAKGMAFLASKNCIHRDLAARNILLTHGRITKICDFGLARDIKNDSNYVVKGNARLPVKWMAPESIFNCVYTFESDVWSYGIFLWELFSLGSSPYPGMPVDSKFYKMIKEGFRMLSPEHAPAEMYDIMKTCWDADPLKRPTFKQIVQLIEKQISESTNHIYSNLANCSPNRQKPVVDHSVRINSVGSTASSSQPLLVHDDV
inhibition of c-Kit [4],Structure (SMILES),CC3 values (percentage of positive nuclei) (cleaved caspase 3 [1]),inhibition of growth of Calu-6 tumour xenograft (Calu-6 tumour xenograft; 1.5 mg/kg/day),inhibition of growth of Calu-6 tumour xenograft (Calu-6 tumour xenograft; 3 mg/kg/day),inhibition of growth of Calu-6 tumour xenograft (Calu-6 tumour xenograft; 6 mg/kg/day),maximum body weight loss [2],tumour growth inhibition (A549 tumour xenografts),tumours smaller than at start of treatment (A549 tumour xenografts),levels of pAKT (normalised to total) compared to control (pAKT [3]),levels of pS6 (normalised to total) compared to control (pS6 [5]),reduction in geometric mean delta tumour volume (NCI-H526 xenografts),MVD values [6],"IC50 (HUVEC; HUVEC assay, VEGF-stimulated, read-out: IC50, VEGF-stimulated endothelial cell proliferation)","IC50 (HUVEC; HUVEC, basal (no VEGF stimulation), read-out: IC50, basal endothelial cell proliferation)",levels of pAKT (normalised to total) compared to control (pAKT [7]),maximum body weight loss [8],MVD values [9],levels of pS6 (normalised to total) compared to control (pS6 [10]),tumour growth inhibition (U87MG xenografts),CC3 values (percentage of positive nuclei) (cleaved caspase 3 [11])
inhibits c-Kit,"COc1cc2c(Oc3ccc4[nH]c(C)cc4c3F)ncnc2cc1OCCCN1CCCC1 [AZD2171, 4-(4-fluoro-2-methyl-1H-indol-5-yloxy)-6-methoxy-7-(3-(pyrrolidin-1-yl)propoxy)quinazoline]",0.43%,49%,69%,91%,2.52%,81.6%,tumour volumes were greater than at start of the treatment,95%,126%,64%,7.75%,400 ± 200 pM,> 500000 pM,–,–,–,–,–,–
–,"COc1ccc(-c2ccc3c(N4CCOC[C@@H]4C)nc(N4CCOC[C@@H]4C)nc3n2)cc1CO [Compound A, [5-[2,4-bis[(3S)-3-methylmorpholin-4-yl]pyrido[5,6-e]pyrimidin-7-yl]-2-methoxyphenyl]methanol]",1.98%,–,–,–,3.45%,99.3%,4 out of 10,48%,37%,38%,19.39%,–,–,37%,0.44%,50%,55%,28.4%,1.64%
–,"COc1cc2c(Nc3ccc(Br)cc3F)ncnc2cc1OCC1CCN(C)CC1 [ZD6474, 4-(4-bromo-2-fluoroanilino)-6-methoxy-7-(1-methylpiperidin-4-ylmethoxy)quinazoline]",–,–,–,–,–,–,–,–,–,–,–,–,–,87%,3.77%,22%,108%,−14.6%,0.73%
